“Also recorded” adds a separate entry of the source.
Molecular target: ACE-2 (Homo sapiens, UniProt Q9BYF1)
Assay: ACE-2 enzyme activity assay (MCA based peptide substrate, fluorescence)
Type: biochemical
Settings: for inhibition ability on ACE-2 enzymatic activity: 20 μg/mL each ingredient

ACE-2, sequence (Q9BYF1 18-805, species assumed): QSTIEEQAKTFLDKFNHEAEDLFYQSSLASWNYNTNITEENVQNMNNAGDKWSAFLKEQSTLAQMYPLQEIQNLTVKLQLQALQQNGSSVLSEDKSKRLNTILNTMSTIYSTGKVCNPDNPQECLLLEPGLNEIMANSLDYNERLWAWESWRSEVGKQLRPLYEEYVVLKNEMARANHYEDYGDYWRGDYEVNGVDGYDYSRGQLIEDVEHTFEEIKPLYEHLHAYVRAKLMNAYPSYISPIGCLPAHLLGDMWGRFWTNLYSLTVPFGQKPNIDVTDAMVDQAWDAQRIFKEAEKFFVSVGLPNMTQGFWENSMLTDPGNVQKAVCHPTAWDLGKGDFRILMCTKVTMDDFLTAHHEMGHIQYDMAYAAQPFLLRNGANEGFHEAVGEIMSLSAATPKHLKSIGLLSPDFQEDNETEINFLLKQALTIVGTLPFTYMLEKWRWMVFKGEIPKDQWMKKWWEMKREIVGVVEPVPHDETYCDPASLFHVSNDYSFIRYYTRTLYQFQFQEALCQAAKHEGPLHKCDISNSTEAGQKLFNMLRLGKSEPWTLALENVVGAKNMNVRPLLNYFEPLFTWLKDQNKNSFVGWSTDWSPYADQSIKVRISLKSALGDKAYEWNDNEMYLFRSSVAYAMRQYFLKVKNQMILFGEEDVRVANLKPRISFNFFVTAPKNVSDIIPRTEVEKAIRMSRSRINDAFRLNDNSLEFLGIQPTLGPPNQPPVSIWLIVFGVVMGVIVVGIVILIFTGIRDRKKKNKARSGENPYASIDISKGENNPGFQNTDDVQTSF

Molecule | inhibition of ACE-2 enzyme activity (20 μg/mL each compound) | inhibition ability on ACE-2 enzymatic activity
C=C(CC[C@@H](C(=O)O)[C@H]1C[C@H](O)[C@@]2(C)C3=CC[C@H]4C(C)(C)[C@@H](O)CC[C@]4(C)C3=CC[C@]12C)C(C)C [DSA, dehydrosulphurenic acid] | more than 30% | stronger inhibition activity; also recorded: have ability of inhibition on ACE-2
C=C(CC[C@@H](C)[C@H]1CC[C@H]2C3=C(C(=O)C[C@]12C)[C@@]1(C)CCC(=O)[C@@H](C)[C@@H]1CC3)C(C)C(=O)O (stereo partly shown) [Antcin A] | – | stronger inhibition activity
Antcin K | – | stronger inhibition activity; also recorded: have ability of inhibition on ACE-2
C=C(CCC(C)C1CCC2C3=C(C(=O)C(O)C21C)C1(C)CCC(O)C(C)C1CC3=O)C(C)C(=O)O (stereo not shown) [Antcin H] | – | had inhibition ability
Antcin C | – | had inhibition ability
C=C(CC[C@@H](C(=O)O)[C@H]1CC[C@@]2(C)C3=CC[C@H]4C(C)(C)[C@@H](O)CC[C@]4(C)C3=CC[C@]12C)C(C)C [DEA, dehydroeburicoic acid] | – | had inhibition ability; also recorded: have ability of inhibition on ACE-2

Source: patent US20230181662A1, “USES OF ANTRODIA CINNAMOMEA EXTRACT IN MANUFACTURING PRODUCTS FOR REDUCING EXPRESSION AND TREATING ASSOCIATED DISEASES OF ANGIOTENSIN CONVERTING ENZYME 2” (priority 2020, published 2023)
